Assays:
[1] = system: Male ddY mice (hypobaric hypoxia); test: Hypobaric Hypoxia Activity (survival time of mice at 180 mmHg); assay type: in vivo; details: Mus musculus, ip, 30 minutes before evacuation, survival time vs. control, read-out: Hypobaric Hypoxia (Minimum effective dose)
Method: (§1) The activities of some compounds prepared in the above-mentioned Synthetic Examples and the Comparative Examples were evaluated as follows.
1. Hypobaric Hypoxia Activity
Male ddY mice having a body weight of 22 to 30 g were used (i.e., 7 to 10 mice in one group). The mice were placed in a desiccator having a volume of about 1 liter and the desiccator was evacuated and then, the sample compound was intraperitoneally injected […]. into the mice. The desiccator was evacuated 30 minutes after the injection and the time from the start of the evacuation to the termination of breathing by the mice was determined to be the survival time. If a mouse was still alive 15 minutes after exposure to the hypoxia, the survival time was assumed to be 15 minutes. The results were compared with a control group, to which only a liquid medium (e.g., physiological saline) was injected.

Acute Toxicity Test = details: mouse, in vivo; ip, mice, suspended in 1% arabic gum
Source text: Male ddY-STF mice having an age of 4 to 5 weeks and a body weight of 22 to 30 g were used for evaluating the acute toxicity of the present compounds. The sample compound was suspended in 1% arabic gum and was intraperitoneally injected.

[2] = system: Male ddY mice (global ischemia); test: Global Ischemia Activity (gasping time after decapitation); assay type: in vivo; details: ip
Method: as §1
2. Global Ischemia Activity
Male ddY mice having a body weight of 22 to 30 g were used (i.e., 6 mice in one group). The sample compound was intraperitoneally injected into the mice and the mice were decapitated 30 minutes after the injection. After decapitation, the gasping times were determined. The results were compared with a control group to which only the liquid medium (i.e., physiological saline) was injected.

| Compound | minimal effective dose [1] | LD50 (Acute Toxicity Test) | minimal effective dose ([2]; Mus musculus, 30 minutes before decapitation, gasping time vs. control, read-out: Global Ischemia (Minimum effective dose)) | Gasping time ([2]; 25 mg/kg) |
| --- | --- | --- | --- | --- |
| COC1=C(OC)C(=O)C(C(CCCC(=O)N2CCSCC2)c2ccccc2)=C(C)C1=O (stereo not drawn) [Example 4, 5-(3,4-dimethoxy-6-methyl-2,5-benzoquinonyl)-5-phenyl-1-thiomorpholino-1-oxopentane] | 6.25 mg/kg | > 1000 mg/kg | – | – |
| COC1=C(OC)C(=O)C(C(CCC(=O)N2CCSCC2)c2ccccc2)=C(C)C1=O (stereo not drawn) [Example 1, 4-(3,4-dimethoxy-6-methyl-2,5-benzoquinonyl)-4-phenyl-1-thiomorpholine-1-oxobutane] | 6.25 mg/kg | > 1000 mg/kg | 12.5 mg/kg | – |
| COC1=C(OC)C(=O)C(C(CCCC(=O)N2CCOCC2)c2ccccc2)=C(C)C1=O (stereo not drawn) [Example 5, 5-(3,4-dimethoxy-6-methyl-2,5-benzoquinonyl)-5-phenyl-1-morpholino-1-oxopentane] | 6.25 mg/kg | > 1000 mg/kg | – | – |
| COC1=C(OC)C(=O)C(C(CCC(=O)O)c2ccccc2)=C(C)C1=O (stereo not drawn) [compound 1, 4-(3,4-Dimethoxy-6-methyl-2,5-benzoquinonyl)-4-phenylbutyric acid, reference compound] | – | > 500 mg/kg | – | – |
| COC1=C(OC)C(=O)C(C(CCC(=O)N2CCN(C)CC2)c2ccccc2)=C(C)C1=O (stereo not drawn) [Example 3, 4-(3,4-Dimethoxy-6-methyl-2,5-benzoquinonyl)-4-phenyl-1-(N-methylpiperazinyl)-1-oxobutane] | 25 mg/kg | – | – | – |
| COC1=C(OC)C(=O)C(C(CCCCCC(=O)O)c2ccccc2)=C(C)C1=O (stereo not drawn) [compound 3, 7-(3,4-Dimethoxy-6-methyl-2,5-benzoquinonyl)-7-phenylheptanoic acid, reference compound] | – | > 500 mg/kg | – | Gasping time was shortened |
| COC1=C(OC)C(=O)C(C(CCCC(=O)O)c2ccccc2)=C(C)C1=O (stereo not drawn) [compound 2, 5-(3,4-Dimethoxy-6-methyl-2,5-benzoquinonyl)-5-phenylvaleric acid, reference compound] | – | > 500 mg/kg | – | – |

From patent US4774241A, “Derivative of benzoquinonylphenyl alkanoic acid amide” (Suntory Limited, priority 1986, dated 1988)
